The test system of the assay is P388 leukemia ip, CD2F1 mice, survival T/C. As to the kind of experiment: NCI In Vivo Anticancer Drug Screen. Data for tumor model P388 Leukemia (intraperitoneal) in CD2F1 (CDF1) mice. As to conditions: endpoint: median survival time, higher = longer survival. In short, it runs like this:
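Mice carrying the transplanted tumor received test compound or vehicle. Survival was recorded in each group, and the value is the treated-group measurement divided by that of the vehicle-treated control group.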

Setting [1] is: dose: 50.0 mg/kg/injection, schedule: Q01DX005 (ip), vehicle: saline with Tween-80.
Setting [2] is: dose: 100.0 mg/kg/injection, schedule: Q01DX005 (ip), vehicle: saline with Tween-80.
The mark [3] stands for this setting: dose: 200.0 mg/kg/injection, schedule: Q01DX005 (ip), vehicle: saline with Tween-80.
[4] abbreviates: dose: 100.0 mg/kg/injection, schedule: Q04DX003 (ip), vehicle: Klucel (hydroxypropylcellulose) (HPC).
Setting [5] is: dose: 200.0 mg/kg/injection, schedule: Q04DX003 (ip), vehicle: Klucel (hydroxypropylcellulose) (HPC).
The mark [6] stands for this setting: dose: 400.0 mg/kg/injection, schedule: Q04DX003 (ip), vehicle: Klucel (hydroxypropylcellulose) (HPC).
[7] abbreviates: dose: 25.0 mg/kg/injection, schedule: Q01DX005 (ip), vehicle: Klucel (hydroxypropylcellulose) (HPC).
The mark [8] stands for this setting: dose: 25.0 mg/kg/injection, schedule: Q01DX009 (ip), vehicle: saline with Tween-80.
[9] abbreviates: dose: 50.0 mg/kg/injection, schedule: Q01DX005 (ip), vehicle: Klucel (hydroxypropylcellulose) (HPC).
[10] abbreviates: dose: 50.0 mg/kg/injection, schedule: Q01DX009 (ip), vehicle: saline with Tween-80.
Where [11] appears, read: dose: 100.0 mg/kg/injection, schedule: Q01DX005 (ip), vehicle: Klucel (hydroxypropylcellulose) (HPC).
[12] abbreviates: dose: 100.0 mg/kg/injection, schedule: Q01DX009 (ip), vehicle: saline with Tween-80.
Setting [13] is: dose: 200.0 mg/kg/injection, schedule: Q01DX009 (ip), vehicle: saline with Tween-80.
The mark [14] stands for this setting: dose: 200.0 mg/kg/injection, schedule: Q01DX005 (ip), vehicle: Klucel (hydroxypropylcellulose) (HPC).

We go through 23 molecules from PubChem BioAssay AID330 (DTP/NCI, 2004).

SMILES strings stand for the structures. Where “and” joins values, the source holds several entries; their conditions need not be identical. Identical values can stand only once. Inconclusive results and toxic doses are left out.

For `CN(C)CCC(OC(=O)c1ccccc1Cl)c1ccccc1` (configuration not stated), the T/C runs as follows: (dose: 25.0 mg/kg/injection, schedule: Q01DX009 (ip), vehicle: saline) 99 % of control and 100 % of control and 101 % of control; (dose: 50.0 mg/kg/injection, schedule: Q01DX009 (ip), vehicle: saline) 101 % of control and 107 % of control and 117 % of control; (dose: 100.0 mg/kg/injection, schedule: Q01DX009 (ip), vehicle: saline) 108 % of control and 116 % of control.
Take `CC1(C)CN(c2ccccc2)N(CO)C1=O`: the T/C by setting is: (dose: 6.25 mg/kg/injection, schedule: Q04DX003 (ip), vehicle: saline) 101 % of control; (dose: 12.5 mg/kg/injection, schedule: Q04DX003 (ip), vehicle: saline) 109 % of control.
Turning to `CC1=C2[C@H]3OC(=O)[C@@H](C)[C@@H]3CC[C@@]2(C)C=C/C1=N\O`, the T/C is, setting by setting: under setting [1], 103 % of control; under setting [2], 95 % of control; under setting [3], 96 % of control.
Take `CC(=O)C(C)S(=O)(=O)O` (configuration not stated): the T/C is 106 % of control (dose: 100.0 mg/kg/injection, schedule: Q01DX001 (ip), vehicle: saline); 106 % of control (dose: 200.0 mg/kg/injection, schedule: Q01DX001 (ip), vehicle: saline); 106 % of control (dose: 400.0 mg/kg/injection, schedule: Q01DX001 (ip), vehicle: saline).
As to `C/C(=N\NC(=S)N1CCN(Cc2ccccc2)CC1)c1ccccn1`, the T/C is, setting by setting: (dose: 3.13 mg/kg/injection, schedule: Q01DX005 (ip), vehicle: saline with Tween-80) 118 % of control; (dose: 12.5 mg/kg/injection, schedule: Q01DX005 (ip), vehicle: saline with Tween-80) 152 % of control.
In the case of `O=S(=O)(NCCSSCCNS(=O)(=O)c1cccs1)c1cccs1`, the T/C (dose: 50.0 mg/kg/injection, schedule: Q01DX009 (ip), vehicle: Klucel (hydroxypropylcellulose) (HPC)) is 88 % of control; the T/C (dose: 100.0 mg/kg/injection, schedule: Q01DX009 (ip), vehicle: Klucel (hydroxypropylcellulose) (HPC)) is 92 % of control; the T/C (dose: 200.0 mg/kg/injection, schedule: Q01DX009 (ip), vehicle: Klucel (hydroxypropylcellulose) (HPC)) is 100 % of control.
As for `O=c1c2ncn(C3OC(CO)C(O)C3O)c2nc2n(C3OC(CO)C(O)C3O)cnn12` (configuration not stated), the T/C was 109 % of control (dose: 60.0 mg/kg/injection, schedule: Q01DX005 (ip), vehicle: saline); 117 % of control (dose: 120.0 mg/kg/injection, schedule: Q01DX005 (ip), vehicle: saline); 122 % of control (dose: 240.0 mg/kg/injection, schedule: Q01DX005 (ip), vehicle: saline).
Turning to `c1ccc2sc(SCCSc3nc4ccccc4s3)nc2c1`, the T/C was 99 % of control (dose: 60.0 mg/kg/injection, schedule: Q01DX005 (ip), vehicle: Klucel (hydroxypropylcellulose) (HPC)); 92 % of control (dose: 120.0 mg/kg/injection, schedule: Q01DX005 (ip), vehicle: Klucel (hydroxypropylcellulose) (HPC)); 89 % of control (dose: 240.0 mg/kg/injection, schedule: Q01DX005 (ip), vehicle: Klucel (hydroxypropylcellulose) (HPC)).
As to `Cc1cc(Cl)ccc1N1C(=O)[N+](C)(C)N=C1[O-]`, the T/C reads like this: (dose: 100.0 mg/kg/injection, schedule: Q04DX003 (ip), vehicle: saline) 103 % of control; (dose: 200.0 mg/kg/injection, schedule: Q04DX003 (ip), vehicle: saline) 103 % of control.
As for `CNC(=O)O/N=C/C(C)(C)SC`, the T/C runs as follows: (dose: 0.11 mg/kg/injection, schedule: Q01DX005 (ip), vehicle: Klucel (hydroxypropylcellulose) (HPC)) 101 % of control; (dose: 0.23 mg/kg/injection, schedule: Q01DX005 (ip), vehicle: Klucel (hydroxypropylcellulose) (HPC)) 101 % of control; (dose: 0.46 mg/kg/injection, schedule: Q01DX005 (ip), vehicle: Klucel (hydroxypropylcellulose) (HPC)) 101 % of control.
As to `CC(=O)Nc1ccc2c(c1)C(=O)c1ccccc1-2`, the T/C is 100 % of control under setting [4], 110 % of control under setting [5] and 110 % of control under setting [6].
On to `CNC1CC2OC(C)(C1OC)n1c3ccccc3c3c4c(c5c6ccccc6n2c5c31)C(=O)NC4` (configuration not stated), for which the T/C by setting is: (dose: 0.75 mg/kg/injection, schedule: Q01DX005 (ip), vehicle: water) 120 % of control; (dose: 1.5 mg/kg/injection, schedule: Q01DX005 (ip), vehicle: water) 90 % of control.
With `C=C(C)C(=NC(C)(C)C)Nc1ccc(Cl)cc1`, the T/C is, setting by setting: (dose: 12.5 mg/kg/injection, schedule: Q01DX005 (ip), vehicle: Klucel (hydroxypropylcellulose) (HPC)) 104 % of control and 106 % of control; under setting [7], 106 % of control and 109 % of control; under setting [8], 98 % of control and 100 % of control; under setting [9], 110 % of control and 116 % of control and 123 % of control; under setting [10], 100 % of control and 102 % of control and 109 % of control; under setting [11], 112 % of control and 116 % of control and 120 % of control. The T/C under setting [12] was 109 % of control and 111 % of control and 119 % of control; the T/C under setting [13] was 118 % of control.
Take `COC(=O)C1CC=CCC1C(=O)OC` (configuration not stated): the T/C is 107 % of control (dose: 100.0 mg/kg/injection, schedule: Q04DX002 (ip), vehicle: saline with Tween-80); 106 % of control (dose: 200.0 mg/kg/injection, schedule: Q04DX002 (ip), vehicle: saline with Tween-80); 100 % of control (dose: 400.0 mg/kg/injection, schedule: Q04DX002 (ip), vehicle: saline with Tween-80).
Consider `CC1=NN(c2ccc(S(=O)(=O)O)cc2)C(=O)C1N=Nc1ccc(-c2ccc(N=Nc3ccc(O)c(C(=O)O)c3)c(C)c2)cc1C` (configuration not stated), for which the T/C (dose: 6.25 mg/kg/injection, schedule: Q01DX009 (ip), vehicle: saline with Tween-80) was 100 % of control and 91 % of control; the T/C (dose: 12.5 mg/kg/injection, schedule: Q01DX009 (ip), vehicle: saline with Tween-80) is 99 % of control and 106 % of control and 113 % of control; the T/C under setting [8] was 100 % of control and 120 % of control and 91 % of control.
`COC(=O)c1cc(OC)cc(C)c1OC(=Nc1cccc(Cl)c1C)c1ccccc1`: the T/C by setting is: under setting [9], 97 % of control; under setting [11], 92 % of control; under setting [14], 96 % of control.
As to `COc1ccc(NC(=S)NC(=O)c2ccccc2)cc1OC`, the T/C runs as follows: under setting [10], 99 % of control; under setting [12], 100 % of control; under setting [13], 107 % of control.
For `CC(=O)Nn1nnc2ccccc2c1=O`, the T/C is, setting by setting: under setting [1], 97 % of control; under setting [2], 110 % of control; under setting [3], 110 % of control.
Turning to `O=C(CC(=NCC(O)CN=C(CC(=O)c1ccccc1)c1ccccc1)c1ccccc1)c1ccccc1.[Ni]` (configuration not stated), the T/C (dose: 25.0 mg/kg/injection, schedule: Q04DX003 (ip), vehicle: saline with Tween-80) is 94 % of control; the T/C (dose: 50.0 mg/kg/injection, schedule: Q04DX003 (ip), vehicle: saline with Tween-80) was 94 % of control; the T/C (dose: 100.0 mg/kg/injection, schedule: Q04DX003 (ip), vehicle: saline with Tween-80) was 87 % of control; the T/C (dose: 200.0 mg/kg/injection, schedule: Q04DX003 (ip), vehicle: saline with Tween-80) was 86 % of control.
Take `COC(=O)[C@@H]1O[C@H]1c1ccccn1`: the T/C under setting [7] was 96 % of control, the T/C under setting [9] was 97 % of control, the T/C under setting [11] is 100 % of control and the T/C under setting [14] was 97 % of control.
With `O=[N+]([O-])c1cccc(S(=O)(=O)N/N=C/c2cc([N+](=O)[O-])cc(I)c2O)c1`, the T/C is, setting by setting: (dose: 60.0 mg/kg/injection, schedule: Q01DX005 (ip), vehicle: saline with Tween-80) 103 % of control; (dose: 120.0 mg/kg/injection, schedule: Q01DX005 (ip), vehicle: saline with Tween-80) 95 % of control; (dose: 240.0 mg/kg/injection, schedule: Q01DX005 (ip), vehicle: saline with Tween-80) 111 % of control.
In the case of `COc1cc(OC)c(C2SCC(=O)N2c2nnc(C(F)(F)F)s2)c(OC)c1` (configuration not stated), the T/C was 109 % of control (dose: 50.0 mg/kg/injection, schedule: Q01DX005 (ip), vehicle: saline + Tween-80 + alcohol); 102 % of control (dose: 100.0 mg/kg/injection, schedule: Q01DX005 (ip), vehicle: saline + Tween-80 + alcohol); 92 % of control (dose: 200.0 mg/kg/injection, schedule: Q01DX005 (ip), vehicle: saline + Tween-80 + alcohol).
For the molecule `CCOc1ccc2c(c1)C(C)=CC(C)(C)N2`, the T/C reads like this: under setting [4], 99 % of control; under setting [5], 102 % of control; under setting [6], 102 % of control.
